Patent publication US9580444B2, “Polycyclic pyrazolinone derivative and herbicide comprising same as effective component thereof” (priority 2013, dated 2017)

What was measured:
Test in all cases: Test Example-1: herbicidal effect by a treatment before weeds are generated under submerged conditions
Type in all cases: in vivo
Conditions in all cases: 500 g a.i/ha, pre-emergence treatment, about 15 days after treatment, score 0-5
[1] = system: Monochoria vaginalis (monochoria)
Method in brief: (§1)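 Paddy-soil cups were puddled, sown with the weeds and kept submerged. On the seeding day, diluted wettable powder or emulsifiable concentrate was applied as a submersing treatment at a predetermined dosage. Herbicidal effect was scored 0–5 about 15 days after treatment.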

[2] = system: Eleocharis acicularis (needle spikerush)
Method in brief: as §1

[3] = system: Scirpus juncoides (bulrush)
Method in brief: as §1

[4] = system: Cyperus difformis (smallflower umbrella plant)
Method in brief: as §1

[5] = system: Echinochloa oryzicola (barnyard grass)
Method in brief: as §1

[6] = system: other annual broad leaf weeds (Lindernia procumbens, Rotala indica, Elatine triandra)
Method in brief: as §1

Row | Compound | Herbicidal effect Monochoria vaginalis [1] | Herbicidal effect Eleocharis acicularis [2] | Herbicidal effect Scirpus juncoides [3] | Herbicidal effect Cyperus difformis [4] | Herbicidal effect Echinochloa oryzicola [5] | Herbicidal effect Broadleaf weed [6]
1 | O=c1c(-c2cc(Oc3c(F)cc(C(F)(F)F)cc3Cl)c(F)cc2F)c(Cl)n2n1CCCC2 [Example 1-340] | 5 (Herbicidal effect/phytotoxicity was 90% or greater) | 5 (Herbicidal effect/phytotoxicity was 90% or greater) | 5 (Herbicidal effect/phytotoxicity was 90% or greater) | 5 (Herbicidal effect/phytotoxicity was 90% or greater) | 5 (Herbicidal effect/phytotoxicity was 90% or greater) | 5 (Herbicidal effect/phytotoxicity was 90% or greater)
2 | O=c1c(-c2cc(OC3CCCC3)c(F)cc2F)c(Cl)n2n1CCCC2 [Example 1-98] | 5 (Herbicidal effect/phytotoxicity was 90% or greater) | 5 (Herbicidal effect/phytotoxicity was 90% or greater) | 5 (Herbicidal effect/phytotoxicity was 90% or greater) | 5 (Herbicidal effect/phytotoxicity was 90% or greater) | 5 (Herbicidal effect/phytotoxicity was 90% or greater) | 5 (Herbicidal effect/phytotoxicity was 90% or greater)
3 | COC(=O)COc1ccccc1Oc1cc(-c2c(Cl)n3n(c2=O)CCCC3)c(F)cc1Cl [Compound 3-16] | 5 (Herbicidal effect/phytotoxicity was 90% or greater) | 5 (Herbicidal effect/phytotoxicity was 90% or greater) | 5 (Herbicidal effect/phytotoxicity was 90% or greater) | 5 (Herbicidal effect/phytotoxicity was 90% or greater) | 5 (Herbicidal effect/phytotoxicity was 90% or greater) | 5 (Herbicidal effect/phytotoxicity was 90% or greater)
4 | O=c1c(-c2ccc(Cl)cc2F)c(Cl)n2n1CCOCC2 [Example 1-129] | 5 (Herbicidal effect/phytotoxicity was 90% or greater) | 5 (Herbicidal effect/phytotoxicity was 90% or greater) | 5 (Herbicidal effect/phytotoxicity was 90% or greater) | 5 (Herbicidal effect/phytotoxicity was 90% or greater) | 5 (Herbicidal effect/phytotoxicity was 90% or greater) | 5 (Herbicidal effect/phytotoxicity was 90% or greater)
5 | O=c1c(-c2cc(OC(F)F)c(Cl)cc2F)c(Cl)n2n1CCCC2 [Example 1-143] | 5 (Herbicidal effect/phytotoxicity was 90% or greater) | 5 (Herbicidal effect/phytotoxicity was 90% or greater) | 5 (Herbicidal effect/phytotoxicity was 90% or greater) | 5 (Herbicidal effect/phytotoxicity was 90% or greater) | 5 (Herbicidal effect/phytotoxicity was 90% or greater) | 5 (Herbicidal effect/phytotoxicity was 90% or greater)
6 | C=CCOc1ccccc1Oc1cc(-c2c(Cl)n3n(c2=O)CCCC3)c(F)cc1Cl [Compound 3-27] | 5 (Herbicidal effect/phytotoxicity was 90% or greater) | 5 (Herbicidal effect/phytotoxicity was 90% or greater) | 5 (Herbicidal effect/phytotoxicity was 90% or greater) | 5 (Herbicidal effect/phytotoxicity was 90% or greater) | 5 (Herbicidal effect/phytotoxicity was 90% or greater) | 5 (Herbicidal effect/phytotoxicity was 90% or greater)
7 | CC(C)CCOc1cc(-c2c(Cl)n3n(c2=O)CCCC3)c(F)cc1Cl [Example 1-159] | 5 (Herbicidal effect/phytotoxicity was 90% or greater) | 5 (Herbicidal effect/phytotoxicity was 90% or greater) | 5 (Herbicidal effect/phytotoxicity was 90% or greater) | 5 (Herbicidal effect/phytotoxicity was 90% or greater) | 5 (Herbicidal effect/phytotoxicity was 90% or greater) | 5 (Herbicidal effect/phytotoxicity was 90% or greater)
8 | C#CCOc1cc(Cl)ccc1Oc1cc(-c2c(Cl)n3n(c2=O)CCCC3)c(F)cc1Cl [Compound 3-39] | 5 (Herbicidal effect/phytotoxicity was 90% or greater) | 5 (Herbicidal effect/phytotoxicity was 90% or greater) | 5 (Herbicidal effect/phytotoxicity was 90% or greater) | 5 (Herbicidal effect/phytotoxicity was 90% or greater) | 5 (Herbicidal effect/phytotoxicity was 90% or greater) | 5 (Herbicidal effect/phytotoxicity was 90% or greater)
9 | O=c1c(-c2cc(Oc3ccccc3O)c(Cl)cc2F)c(Cl)n2n1CCCC2 [Compound 3-1] | 5 (Herbicidal effect/phytotoxicity was 90% or greater) | 5 (Herbicidal effect/phytotoxicity was 90% or greater) | 5 (Herbicidal effect/phytotoxicity was 90% or greater) | 5 (Herbicidal effect/phytotoxicity was 90% or greater) | 5 (Herbicidal effect/phytotoxicity was 90% or greater) | 5 (Herbicidal effect/phytotoxicity was 90% or greater)
10 | N#CCOc1ccc(Oc2cc(-c3c(Cl)n4n(c3=O)CCCC4)c(F)cc2Cl)cc1 [Compound 3-20] | 5 (Herbicidal effect/phytotoxicity was 90% or greater) | 5 (Herbicidal effect/phytotoxicity was 90% or greater) | 5 (Herbicidal effect/phytotoxicity was 90% or greater) | 5 (Herbicidal effect/phytotoxicity was 90% or greater) | 5 (Herbicidal effect/phytotoxicity was 90% or greater) | 5 (Herbicidal effect/phytotoxicity was 90% or greater)
11 | C=CCOc1ccc(Oc2cc(-c3c(Cl)n4n(c3=O)CCCC4)c(F)cc2Cl)cc1 [Compound 3-29] | 5 (Herbicidal effect/phytotoxicity was 90% or greater) | 5 (Herbicidal effect/phytotoxicity was 90% or greater) | 5 (Herbicidal effect/phytotoxicity was 90% or greater) | 5 (Herbicidal effect/phytotoxicity was 90% or greater) | 5 (Herbicidal effect/phytotoxicity was 90% or greater) | 5 (Herbicidal effect/phytotoxicity was 90% or greater)
12 | CC1(COc2cc(-c3c(Cl)n4n(c3=O)CCCC4)c(F)cc2Cl)CC(c2ccccc2F)=NO1 (stereo not drawn) [Compound 4-3] | 5 (Herbicidal effect/phytotoxicity was 90% or greater) | 5 (Herbicidal effect/phytotoxicity was 90% or greater) | 5 (Herbicidal effect/phytotoxicity was 90% or greater) | 5 (Herbicidal effect/phytotoxicity was 90% or greater) | 5 (Herbicidal effect/phytotoxicity was 90% or greater) | 5 (Herbicidal effect/phytotoxicity was 90% or greater)
13 | COCOc1ccc(Oc2cc(-c3c(Cl)n4n(c3=O)CCCC4)c(F)cc2Cl)cc1 [Compound 3-15] | 5 (Herbicidal effect/phytotoxicity was 90% or greater) | 5 (Herbicidal effect/phytotoxicity was 90% or greater) | 5 (Herbicidal effect/phytotoxicity was 90% or greater) | 5 (Herbicidal effect/phytotoxicity was 90% or greater) | 5 (Herbicidal effect/phytotoxicity was 90% or greater) | 5 (Herbicidal effect/phytotoxicity was 90% or greater)
14 | C=CC(F)(F)Oc1cc(-c2c(Cl)n3n(c2=O)CCCC3)c(F)cc1Cl [Example 1-206] | 5 (Herbicidal effect/phytotoxicity was 90% or greater) | 5 (Herbicidal effect/phytotoxicity was 90% or greater) | 5 (Herbicidal effect/phytotoxicity was 90% or greater) | 5 (Herbicidal effect/phytotoxicity was 90% or greater) | 5 (Herbicidal effect/phytotoxicity was 90% or greater) | 5 (Herbicidal effect/phytotoxicity was 90% or greater)
